Experimental findings from patent US20110046108A1, “PYRIMIDINE DERIVATIVES” (AstraZeneca AB, priority 2006, published 2011) are described below.

SMILES strings stand for the structures. pIC50: −log10 of the molar value. Like-named read-outs stand apart in the source and are kept apart here.

The target of one assay is T1, EphB4 (Homo sapiens, UniProt P54760).
T1 construct: to generate full-length EphB4 containing a Myc-His tag at the C-terminus; expressed in transfected cells; host or cells: CHO-K1 (EphB4-CHO)
The assay is described as follows: In vitro EphB4 cell assay (Assay B, EphB4 phosphorylation ELISA in EphB4-CHO cells). The assay is classed as cell-based. As to conditions: for IC50: mean values, Table A, read-out: Mean IC50 (μM) obtained using Assay B. A general note: In an ELISA, binding on a coated surface is turned into a signal by an enzyme label.

For a further assay, the target named is T2, c-Src kinase (Homo sapiens, UniProt P12931).
T2 construct: purchased Upstate 14-117
Nature of the assay: Src in vitro enzyme assay (Assay C, ELISA). The assay is classed as biochemical. As to conditions: 2.2 μM ATP. The protocol: The ability of test compounds to inhibit the phosphorylation of a tyrosine containing polypeptide substrate by the enzyme c-Src kinase was assessed using a conventional ELISA assay with a colorimetric endpoint.
Each well of Matrix 384-well plates (Matrix, Brooke Park, Wilmslow, Cheshire, SK9 3LP, UK, Catalogue No. 4311) were coated overnight at 4° C. with 40 μl of 10 ug/ml stock of synthetic polyamino acid pEAY substrate (Sigma-Aldrich Company Ltd, Gillingham, Dorset, SP8 4XT, UK, Catalogue No. P3899) in phosphate buffered saline (PBS). Immediately prior to the assay, the plates were washed with 100 μl/well of PBS containing Tween-20 and then with 50 mM HEPES pH7.4.
Test compounds were prepared as 10 mM stock solutions in DMSO (Sigma-Aldrich Company Ltd, Gillingham, Dorset, SP8 4XT, UK, Catalogue No.154938) and serially diluted with 10% DMSO to give a range of test concentrations at 4× the required final concentration. […]
The plates were washed three times with 100 μl/well of PBS-Tween20 and then 40 μl of a PBS-Tween20 and 0.5% BSA solution containing 4G10-HRP anti-phosphotyrosine antibody (Upstate, Catalogue No 16-105) added to each well. […] The reaction was then stopped with the addition of 20 μl/well 2M sulphuric acid and the absorbances determined at 450 nm using a plate reading spectrophotometer. […]

A further assay has as its target T3, recombinant EphB4 (Homo sapiens, UniProt P54760).
T3 construct: recombinant active EphB4 (amino acids 563-987; Swiss-Prot Acc; No. P54760); purchased ProQinase GmbH 0178-0000-3
T3 sequence (P54760 563-987): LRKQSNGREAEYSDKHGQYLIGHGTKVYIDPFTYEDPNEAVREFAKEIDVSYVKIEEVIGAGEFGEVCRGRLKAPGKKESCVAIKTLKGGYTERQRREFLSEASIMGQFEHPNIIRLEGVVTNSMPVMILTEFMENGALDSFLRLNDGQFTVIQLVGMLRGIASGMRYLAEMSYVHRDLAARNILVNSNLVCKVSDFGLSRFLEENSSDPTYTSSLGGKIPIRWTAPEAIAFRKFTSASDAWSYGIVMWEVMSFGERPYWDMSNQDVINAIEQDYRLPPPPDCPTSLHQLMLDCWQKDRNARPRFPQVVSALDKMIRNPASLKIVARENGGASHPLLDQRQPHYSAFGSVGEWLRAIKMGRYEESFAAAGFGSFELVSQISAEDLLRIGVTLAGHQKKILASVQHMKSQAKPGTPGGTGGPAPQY
Nature of the assay: In vitro EphB4 enzyme assay (Assay A, Alphascreen). The note with it: 4 μM ATP. The assay is classed as biochemical. The protocol: This assay detects inhibitors of EphB4-mediated phosphorylation of a polypeptide substrate using Alphascreen™ luminescence detection technology. Briefly, recombinant EphB4 was incubated with a biotinylated-polypeptide substrate (biotin-poly-GAT) in presence of magnesium-ATP. The reaction was stopped by addition of EDTA, together with streptavidin-coated donor beads which bind the biotin-substrate containing any phosphorylated tyrosine residues. Anti-phosphotyrosine antibodies present on acceptor beads bind to phosphorylated substrate, thus bringing the donor & acceptor beads into close proximity. Subsequent excitation of the donor beads at 680 nm generated singlet oxygen species that interact with a chemiluminescer on the acceptor beads, leading to light emission at 520-620 nm. The signal intensity is directly proportional to the level of substrate phosphorylation and thus inhibition is measured by a decrease in signal.
Test compounds were prepared as 10 mM stock solutions in DMSO (Sigma-Aldrich Company Ltd, Gillingham, Dorset SP8 4XT Catalogue No.154938) and serially diluted with 5% DMSO to give a range of test concentrations at 6× the required final concentration. […]
The resulting assay signal was determined on the Perkin Elmer EnVision plate reader. […]

T1 sequence (P54760 16-987): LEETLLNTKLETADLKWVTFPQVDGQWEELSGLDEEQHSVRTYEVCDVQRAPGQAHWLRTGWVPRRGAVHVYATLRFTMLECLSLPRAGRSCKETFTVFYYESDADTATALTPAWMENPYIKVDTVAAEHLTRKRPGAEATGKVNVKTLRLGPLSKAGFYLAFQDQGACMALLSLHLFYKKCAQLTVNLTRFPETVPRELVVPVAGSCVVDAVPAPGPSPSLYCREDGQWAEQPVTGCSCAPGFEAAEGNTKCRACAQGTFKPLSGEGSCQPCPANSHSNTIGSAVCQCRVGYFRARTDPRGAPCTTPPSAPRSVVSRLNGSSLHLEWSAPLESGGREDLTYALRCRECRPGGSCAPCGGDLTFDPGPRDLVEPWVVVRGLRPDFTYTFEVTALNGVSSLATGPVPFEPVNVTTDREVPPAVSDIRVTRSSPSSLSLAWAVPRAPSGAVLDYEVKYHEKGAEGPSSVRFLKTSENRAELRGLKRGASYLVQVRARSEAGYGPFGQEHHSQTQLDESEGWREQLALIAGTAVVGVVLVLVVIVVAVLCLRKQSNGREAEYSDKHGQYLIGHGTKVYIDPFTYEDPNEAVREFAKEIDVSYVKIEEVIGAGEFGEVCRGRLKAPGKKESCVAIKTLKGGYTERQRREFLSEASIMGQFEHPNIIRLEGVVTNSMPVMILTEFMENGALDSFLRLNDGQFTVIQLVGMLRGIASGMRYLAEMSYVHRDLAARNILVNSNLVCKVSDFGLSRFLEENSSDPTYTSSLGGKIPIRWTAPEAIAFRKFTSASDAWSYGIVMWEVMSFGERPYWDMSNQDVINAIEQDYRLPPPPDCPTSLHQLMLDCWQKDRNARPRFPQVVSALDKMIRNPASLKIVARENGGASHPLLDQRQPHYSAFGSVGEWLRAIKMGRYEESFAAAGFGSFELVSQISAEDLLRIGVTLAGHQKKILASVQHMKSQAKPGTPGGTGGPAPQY
T2 sequence (P12931 whole entry): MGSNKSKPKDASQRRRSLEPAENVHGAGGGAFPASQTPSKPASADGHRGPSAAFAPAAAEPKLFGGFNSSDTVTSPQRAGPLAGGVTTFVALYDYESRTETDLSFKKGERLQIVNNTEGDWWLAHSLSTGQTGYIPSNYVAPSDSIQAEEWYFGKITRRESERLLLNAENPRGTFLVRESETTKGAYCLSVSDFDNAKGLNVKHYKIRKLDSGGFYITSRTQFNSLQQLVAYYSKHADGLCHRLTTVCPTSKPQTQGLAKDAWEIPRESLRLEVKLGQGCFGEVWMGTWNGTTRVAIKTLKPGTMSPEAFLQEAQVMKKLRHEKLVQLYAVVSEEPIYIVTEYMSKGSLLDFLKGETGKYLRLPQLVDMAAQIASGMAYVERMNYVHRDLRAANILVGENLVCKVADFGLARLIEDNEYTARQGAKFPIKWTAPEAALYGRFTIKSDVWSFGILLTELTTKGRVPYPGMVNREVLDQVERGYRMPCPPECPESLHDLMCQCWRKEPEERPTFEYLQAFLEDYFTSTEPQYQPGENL

In general, IC50 refers to the point on the concentration scale where inhibition reaches its midpoint. With `CC(=O)Nc1cc(Nc2nccc(Nc3cccc4[nH]ncc34)n2)ccc1C` [Compound 293, N-[5-[[4-(1H-indazol-4-ylamino)pyrimidin-2-yl]amino]-2-methyl-phcnyl] acetamide], the IC50 on EphB4 turned out to be 0.23 µM. The same measure, in the same setting: then `CS(=O)(=O)Nc1cccc(Nc2nccc(N(CC#N)c3c(Cl)ccc4c3OCO4)n2)c1` [Compound 227], with 0.19 µM; and `N#Cc1cccc(Nc2nccc(N(CCO)c3c(Cl)ccc4c3OCO4)n2)c1` [Compound 241, 3-[[4-[(5-chlorobenzo [1,3]dioxol-4-yl)-(2-hydroxyethyl)amino]pyrimidin-2-yl]amino] benzonitrile], with 0.13 µM. By pIC50 is commonly meant the negative decadic logarithm of the IC50, by convention in mol/L. For the compound `Clc1ccc2c(c1Nc1ccnc(Nc3ccc4ncsc4c3)n1)OCO2` [Compound 59, N~2~-1,3-benzothiazol-6-yl-N~4~-(5-chloro-1,3-benzodioxol-4-yl)pyrimidine-2,4-diamine], the pIC50 on c-Src kinase is 6.48; at EphB4 (ephrin-B2 stimulated EphB4 phosphorylation, read-out: IC50 in assay B) it was 5.90; at recombinant EphB4, 6.34. With `COc1cc(Nc2nccc(Nc3cccc4c3OCO4)n2)cc(OC)c1` [Compound 258, N′-benzo[1,3]dioxol-4-yl-N-(3,5-dimethoxyphenyl) pyrimidine-2,4-diamine], on EphB4, the IC50 was 1.08 µM. On the same count and under the same terms, then `CN(c1ccnc(Nc2cccc(NS(C)(=O)=O)c2)n1)c1c(Cl)ccc2c1OCO2` [Compound 219, N-[3-[[4-[(5-chlorobenzo [1,3]dioxol-4-yl)-methyl-amino]pyrimidin-2-yl]amino]phenyl]methane sulfonamide], with 0.14 µM.
